A word on the IC50: it is the concentration that gives 50% inhibition.

The target of the test is Human O-GlcNAcase (His-Tagged hOGA) (Homo sapiens (Human), UniProt O60502). Put plainly: Human O-GlcNAcase enzyme inhibition assay. It is filed as biochemical. To be noted: OGA enzyme inhibition assay; activity range classes defined in μM.
Sequence of Human O-GlcNAcase (His-Tagged hOGA) (O60502 whole entry): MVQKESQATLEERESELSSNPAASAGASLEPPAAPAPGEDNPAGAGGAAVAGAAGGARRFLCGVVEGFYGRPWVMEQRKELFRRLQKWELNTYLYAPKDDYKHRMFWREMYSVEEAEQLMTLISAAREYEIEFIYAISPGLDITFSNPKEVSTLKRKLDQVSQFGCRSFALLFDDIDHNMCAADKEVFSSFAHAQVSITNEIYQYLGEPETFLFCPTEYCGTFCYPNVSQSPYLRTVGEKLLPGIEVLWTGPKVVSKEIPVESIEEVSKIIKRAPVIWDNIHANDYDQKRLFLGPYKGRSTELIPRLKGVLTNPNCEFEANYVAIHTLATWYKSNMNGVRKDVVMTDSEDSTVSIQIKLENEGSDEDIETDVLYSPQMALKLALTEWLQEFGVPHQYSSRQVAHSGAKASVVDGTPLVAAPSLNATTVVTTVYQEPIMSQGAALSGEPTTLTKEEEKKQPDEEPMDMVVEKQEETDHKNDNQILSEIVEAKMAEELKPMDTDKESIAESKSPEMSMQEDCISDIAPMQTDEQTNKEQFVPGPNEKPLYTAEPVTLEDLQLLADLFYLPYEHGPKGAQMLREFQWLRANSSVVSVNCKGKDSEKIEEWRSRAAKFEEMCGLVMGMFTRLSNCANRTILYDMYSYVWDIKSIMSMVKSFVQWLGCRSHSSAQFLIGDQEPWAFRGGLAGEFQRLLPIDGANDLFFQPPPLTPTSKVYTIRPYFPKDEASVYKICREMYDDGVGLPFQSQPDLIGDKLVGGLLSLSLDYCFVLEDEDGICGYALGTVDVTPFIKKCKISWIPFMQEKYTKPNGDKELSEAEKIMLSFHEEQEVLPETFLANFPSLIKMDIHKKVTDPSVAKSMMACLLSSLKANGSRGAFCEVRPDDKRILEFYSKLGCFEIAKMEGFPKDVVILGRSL
Experimental: Then, 20 nM of His-Tagged hOGA and 10 μM of FL-GlcNAc (Fluorescein mono-beta-D-(2-deoxy-2-N-acetyl) glucopyranoside; Marker Gene Technologies Inc, M1485) were added to the 384-well plate for a final volume of 20 μl.
`Cc1ncc2ccc(N3CCN(C(C)c4ccc5c(c4)OCC5)CC3)cn12` (racemic) [Example 1, 6-(4-(1-(2,3-dihydrobenzofuran-6-yl)ethyl)piperazin-1-yl)-3-methylimidazo[1,5-a]pyridine] yielded an IC50 of under 0.05 µM.
To `C[C@H](c1ccc2c(c1)OCC2)N1CCN(c2nc3c(s2)CNCC3)CC1` (single isomer, unassigned) [Example 18] belongs 1 to 10 µM; to `CC(c1ccc2c(c1)OCC2)N1CCN(c2cc3c(cn2)NC(=O)CO3)CC1` (racemic) [Example 3, 7-(4-(1-(2,3-dihydrobenzofuran-6-yl)ethyl)piperazin-1-yl)-2H-pyrido[4,3-b][1,4]oxazin-3(4H)-one], under 0.05 µM.
In turn, `CC(c1ccc2c(c1)OCC2)N1CCN(c2nc3c(s2)C(=O)NCC3)CC1` (racemic) [Example 12, 2-(4-(1-(2,3-dihydrobenzofuran-6-yl)ethyl)piperazin-1-yl)-6,7-dihydrothiazolo[5,4-c]pyridin-4(5H)-one] showed an IC50 of under 0.05 µM.
Molecule `CC(c1ccc2nccnc2c1)N1CCN(c2ccc3c(c2)C(=O)NC3)CC1` (racemic) [Example 4, 6-(4-(1-(quinoxalin-6-yl)ethyl)piperazin-1-yl)isoindolin-1-one] gave a half-inhibitory concentration (IC50) of 0.05 to 0.2 µM.
To `CC(c1ccc2c(c1)OCC2)N1CCN(c2ccc3c(c2)C(=O)NC3)CC1` (racemic) [Example 2, 6-(4-(1-(2,3-dihydrobenzofuran-6-yl)ethyl)piperazin-1-yl)isoindolin-1-one] belongs under 0.05 µM.

Values taken from patent publication US11612599B2, “Glycosidase inhibitors” (Asceneuron SA, priority 2016, dated 2023).
